These results are taken from paper PMC7293822 (ACS chemical biology, 2018).

Numbered stars: 1 amine (or outer) side, 2 acyl side, 3 side chain; on linkers, the order of the positions; unused ones are H or OH. Ends that are not written are not given here. Peptide text beside a SMILES is read from it. * marks the point of attachment. Glutaryl = O=C(CCCC(=O)[*:2])[*:1]; AMC = Cc1cc(=O)oc2cc(N*)ccc12

Data set [1] has as its system Pd_dinase. Description: Fluorescent protease assay with AMC substrates, Pd_dinase. Conditions: 8 nM Pd_dinase, 50 μM substrate, 30 min, D-PBS, 2 mM DTT. It is filed as biochemical, Parabacteroidetes distasonis.
For data set [2], the target named is human aminopeptidase B (Homo sapiens, UniProt Q9H4A4). Put plainly: Fluorescent protease assay with AMC substrates, aminopeptidase B. To be noted: 2 nM human aminopeptidase B, 50 μM substrate, 30 min, D-PBS, 2 mM DTT. It is filed as biochemical.
Sequence of human aminopeptidase B (Q9H4A4 whole entry): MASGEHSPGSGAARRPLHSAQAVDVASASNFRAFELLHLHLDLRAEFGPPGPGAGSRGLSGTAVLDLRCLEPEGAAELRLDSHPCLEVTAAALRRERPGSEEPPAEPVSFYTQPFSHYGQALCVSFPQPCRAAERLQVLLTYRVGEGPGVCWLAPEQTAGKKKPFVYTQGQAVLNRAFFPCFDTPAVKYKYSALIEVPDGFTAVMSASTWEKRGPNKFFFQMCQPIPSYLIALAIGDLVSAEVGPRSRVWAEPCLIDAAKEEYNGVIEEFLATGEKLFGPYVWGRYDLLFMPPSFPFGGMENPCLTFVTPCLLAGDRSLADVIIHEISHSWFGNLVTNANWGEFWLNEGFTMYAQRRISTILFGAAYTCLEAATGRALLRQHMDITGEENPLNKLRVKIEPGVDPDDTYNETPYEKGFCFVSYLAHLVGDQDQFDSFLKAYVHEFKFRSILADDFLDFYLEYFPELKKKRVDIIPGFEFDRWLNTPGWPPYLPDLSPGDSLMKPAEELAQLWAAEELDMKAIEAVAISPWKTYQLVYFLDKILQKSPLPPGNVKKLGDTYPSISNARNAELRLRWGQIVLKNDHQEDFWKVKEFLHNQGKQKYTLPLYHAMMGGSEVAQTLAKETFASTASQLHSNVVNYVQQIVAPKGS
Data set [3] has as its target T1, bovine trypsin (Bos taurus, UniProt P00760).
T1 sequence (P00760 24-246): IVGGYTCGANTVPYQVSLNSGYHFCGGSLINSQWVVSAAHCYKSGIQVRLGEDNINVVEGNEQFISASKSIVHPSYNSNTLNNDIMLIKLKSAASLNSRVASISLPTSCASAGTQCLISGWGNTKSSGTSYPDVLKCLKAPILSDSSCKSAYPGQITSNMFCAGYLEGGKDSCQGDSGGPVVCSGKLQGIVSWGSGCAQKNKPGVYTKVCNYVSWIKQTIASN
Put plainly: Fluorescent protease assay with AMC substrates, trypsin. It is filed as biochemical. To be noted: 100 nM bovine trypsin, 50 μM substrate, 30 min, D-PBS, 2 mM DTT.

Data set [4] has as its system Pd_dinase. Description: Antimicrobial peptide digestion by Pd_dinase, LC-MS/MS. It is filed as in vitro ADME, Parabacteroidetes distasonis.
Data set [5] deals with E. coli. To be noted: cited from earlier work.
The test system of data set [6] is Pseudomonas aeruginosa. Conditions: cited from earlier work.
Data set [7] relates to Streptococcus pyogenes. To be noted: cited from earlier work.
In data set [8] the test system is Staphylococcus aureus. To be noted: cited from earlier work.
Data set [9] deals with aminopeptidase B. Put plainly: human aminopeptidase B. To be noted: up to 30 min.
Data set [10] deals with Pd_dinase. Description: Pd_dinase. Conditions: Parabacteroidetes distasonis, up to 30 min.
The subject of data set [11] is Pd_dinase. Put plainly: 10 nM of Pd_dinase incubated with each antimicrobial peptide. To be noted: Parabacteroidetes distasonis, up to 1200 min.
For data set [12], the system named is trypsin. Description: bovine trypsin. To be noted: up to 30 min.
Data set [13] concerns Pd_dinase. Description: Inhibition of Pd_dinase by peptide-AOMK inhibitors. Conditions: 50 μM inhibitor, 2 nM Pd_dinase, 50 μM substrate, activity monitored for 4 h. It is filed as biochemical, Parabacteroidetes distasonis.

As to `Cc1cc(=O)oc2cc(NC(=O)[C@@H](N)CCCN=C(N)N)ccc12` [Arg-AMC, NH2-arginine-AMC], the “cleavage of AMC substrate by Pd_dinase” value in data set [1] was “does not cleave”. For the same molecule, in data set [2], the “cleavage of AMC substrate by aminopeptidase B” value is “only cleaved”. In addition, the “cleavage of AMC substrate by trypsin” value in data set [3] is “failed to hydrolyze”.
Consider `Cc1cc(=O)oc2cc(NC(=O)[C@H](CCCNC(=N)N)NC(=O)CN)ccc12` [Gly-Arg-AMC, NH2-Gly-Arg-AMC] (H-Gly-Arg-{AMC}), for which the “cleavage of AMC substrate by Pd_dinase” value in data set [1] was “rapidly hydrolyzes”.
Molecule AIGGGLSSVGGGS [KAMP-13] registered a metabolised at 20 h, 5 μM in [4] (Parabacteroidetes distasonis, isolated protease Pd dinase (10 nM)) of 15.5%.
For GGLSSVGGGSSTIK [KAMP-14], in data set [4] (10 nM Pd_dinase, 5 μM peptide, 5 to 1200 min, triplicate, LC-MS/MS), the “degradation by Pd_dinase” value was “degraded into a 12-mer peptide”. In addition, the bactericidal activity result in data set [5], in [6], in [7] and in [8] was “bactericidal” each time.
Consider Glutaryl-Gly-Arg-{AMC}, for which the not cleaved result in data set [9] is “aminopeptidase B only cleaved Arg-AMC”; in data set [10], “does not cleave Glt-Gly-Arg-AMC”.
Regarding “Glutaryl-Gly-Arg-{AMC} [Glt-Gly-Arg-AMC]”, the “cleavage of AMC substrate by Pd_dinase” value in data set [1] was “does not cleave”. Moreover, the “rate of cleavage by trypsin relative to Gly-Arg-AMC” value in [3] stood at 80 fold.
Regarding H-AIGGGLSSVGGGS-OH, in data set [11], the cleaved bond entry is “Ile-G, minor” and the fragment found is 9-mer peptide.
Take H-Gly-Arg-{AMC}: in data set [9], the not cleaved entry is recorded as “aminopeptidase B only cleaved Arg-AMC”.
With NH2-arginine-AMC, the results for the not cleaved result in [12] and in data set [10] were “failed to hydrolyze Arg-AMC” and “does not cleave Arg-AMC”, respectively.
With “NH2-glycine-arginine-AOMK [Gly-Arg-AOMK]”, the “effect on Pd_dinase activity” value in [13] is given as “completely inhibited”.
